tested on: Human MSCs; experiment: Human chondrocyte differentiation assay (immunostaining for type II collagen, Sox9 and COMP); type: cell-based; conditions: 168 h, compound 1 μM, 7 days, vs DMSO vehicle, read-out: Biological Activity (increase in staining intensity compared to vehicle control)
Protocol: Human MSCs (50,000) were plated into each well of a 96-well plate and cultured overnight. Compounds (in DMSO solution) were added to the cells at a final concentration of 1 μM, and the cells were cultured for 7 days at 5% CO2, 37° C. The cells were fixed with 10% formalin solution at room temperature for 10 min, and immunostained using antibodies specific for type II collagen (Abcam), Sox9 (Santa Cruz) and cartilage oligomeric matrix protein (COMP, Santa Cruz), and fluorescently labeled secondary antibodies (Li-Cor). The total intensity of the staining was measured using Oddyssey CLx imaging system (Li-Cor). Vehicle (DMSO) was used as control to determine the basal level of chondrocyte differentiation. […] Representative data are shown in Table 1 [A: >50% increase in staining intensity compared to vehicle control; B: 30-50% increase in staining intensity compared to vehicle control].

First: COCCc1ccc(NC(=O)c2ccccc2C(=O)O)cc1 [Compound 21]
Second: NC(=O)Cc1ccc(NC(=O)c2ccccc2C(=O)O)cc1 [Compound 51]
The activation at 1 µM of the first is higher: over 50% for the first, 30 to 50% for the second.

First: CC1COCCN1S(=O)(=O)c1ccccc1NC(=O)c1ccc(F)cc1 (stereo not shown) [Compound 128]
Second: O=C(Nc1ccccc1S(=O)(=O)N1CCS(=O)(=O)CC1)c1ccc(F)cc1 [Compound 141]
The activation at 1 µM of the first is higher: over 50% for the first, 30 to 50% for the second.

`CS(=O)(=O)Nc1ccccc1C(=O)NCc1ccc(C(=O)O)cc1` [Compound 120] and `O=C(O)c1ccc(CNC(=O)c2cccc(F)c2C(=O)O)cc1` [Compound 93] fall in the same range of activation at 1 µM: 30 to 50% for the first, 30 to 50% for the second.

`CC(=O)c1cccc(NC(=O)Nc2ccccc2C(=O)O)c1` [Compound 204] and `O=C(Nc1cccc(C(F)(F)F)c1)Nc1ccccc1C(=O)O` [Compound 196] fall in the same range of activation at 1 µM: 30 to 50% for the first, 30 to 50% for the second.

`Cc1ccc(NC(=O)c2ccccc2C(=O)O)c(F)c1` [Compound 85] and `N#Cc1cc(Cl)ccc1NC(=O)c1ccccc1C(=O)O` [Compound 8] fall in the same range of activation at 1 µM: 30 to 50% for the first, 30 to 50% for the second.

First: CS(=O)(=O)NCc1cccc(NC(=O)c2ccccc2C(=O)O)c1 [Compound 72]
Second: CS(=O)(=O)c1cccc(NC(=O)c2ccccc2C(=O)O)c1 [Compound 38]
The activation at 1 µM of the first is higher: over 50% for the first, 30 to 50% for the second.

`O=C(Nc1ccccc1S(=O)(=O)N1CCOCC1)c1ccc(-c2ccccc2)cc1` [Compound 133] and `O=C(O)c1ccc(C(=O)Nc2ccccc2S(=O)(=O)N2CCOCC2)cc1` [Compound 147] fall in the same range of activation at 1 µM: 30 to 50% for the first, 30 to 50% for the second.

`COC(=O)c1ccccc1NC(=O)Nc1ccccc1C(F)(F)F` [Compound 194] and `COC(=O)c1ccccc1NC(=O)Nc1ccccc1C` [Compound 197] fall in the same range of activation at 1 µM: 30 to 50% for the first, 30 to 50% for the second.

First: CN(c1cccc(NC(=O)c2ccccc2C(=O)O)c1)S(C)(=O)=O [Compound 107]
Second: NCc1cccc(NC(=O)c2ccccc2C(=O)O)c1 [Compound 71]
The activation at 1 µM of the first is lower: 30 to 50% for the first, over 50% for the second.

Compared with `O=C(O)c1ccc(CNC(=O)c2c(Cl)cccc2C(=O)O)cc1` [Compound 100], `COc1cccc(C(=O)O)c1C(=O)NCc1ccc(C(=O)O)cc1` [Compound 104] is higher in activation at 1 µM: 30 to 50% for the first, over 50% for the second.

`NS(=O)(=O)c1ccc(N2Cc3ccccc3C2=O)cc1` [Compound 26] and `CS(=O)(=O)c1ccc(C(=O)CC2OC(=O)c3ccccc32)cc1` (stereo not shown) [Compound 44] fall in the same range of activation at 1 µM: 30 to 50% for the first, 30 to 50% for the second.

`COC(=O)N(C)Cc1cccc(NC(=O)c2ccccc2C(=O)O)c1` [Compound 49] and `C/C(=N\O)c1cccc(NC(=O)c2ccccc2C(=O)O)c1` [Compound 58] fall in the same range of activation at 1 µM: 30 to 50% for the first, 30 to 50% for the second.

`N#Cc1ccc(C(=O)Nc2ccccc2S(=O)(=O)N2CCOCC2)cc1` [Compound 62] and `CC(=O)c1cccc(C(=O)Nc2ccccc2S(=O)(=O)N2CCOCC2)c1` [Compound 122] cannot be ordered by activation at 1 µM: over 50% for the first, over 50% for the second.

First: CC(C(=O)c1ccc(C#N)cc1)C1OC(=O)c2ccccc21 (stereo not shown) [Compound 23]
Second: N#Cc1ccc(C(=O)CC2OC(=O)c3ccccc32)cc1 (stereo not shown) [Compound 25]
The activation at 1 µM of the first is higher: over 50% for the first, 30 to 50% for the second.

Compared with `O=C(O)c1ccccc1C(=O)Nc1ccc2c(c1)OCCO2` [Compound 64], `O=C(O)c1ccccc1C(=O)Nc1ccc2c(c1)OCO2` [Compound 65] is higher in activation at 1 µM: 30 to 50% for the first, over 50% for the second.

`CC(=O)c1cc(NC(=O)c2ccccc2C(=O)O)ccc1F` [Compound 31] and `CC(=O)Nc1ccc(NC(=O)c2ccccc2C(=O)O)cc1` [Compound 142] fall in the same range of activation at 1 µM: 30 to 50% for the first, 30 to 50% for the second.

`O=C(O)c1cc(Cl)ccc1C(=O)Nc1ccc(CCCO)cc1` [Compound 184] and `O=C(O)c1ccc(Cl)cc1C(=O)Nc1ccc(CCCO)cc1` [Compound 187] fall in the same range of activation at 1 µM: 30 to 50% for the first, 30 to 50% for the second.

`O=C(O)c1ccccc1C(=O)Nc1ccc(CCCO)cc1OC(F)(F)F` [Compound 148] and `O=C(O)c1cc(CCCO)ccc1NC(=O)c1ccccc1C(=O)O` [Compound 176] fall in the same range of activation at 1 µM: 30 to 50% for the first, 30 to 50% for the second.

`Cc1cc(NC(=O)c2ccccc2C(=O)O)ccn1` [Compound 66] and `O=C(O)c1ccccc1C(=O)Nc1nccs1` [Compound 29] fall in the same range of activation at 1 µM: 30 to 50% for the first, 30 to 50% for the second.

First: N#Cc1ccc(Cl)c(NC(=O)c2ccccc2C(=O)O)c1 [Compound 1]
Second: N#Cc1cc(NC(=O)c2ccccc2C(=O)O)cc(C(F)(F)F)c1 [Compound 9]
The activation at 1 µM of the first is lower: 30 to 50% for the first, over 50% for the second.

`O=C(O)c1ccc(F)cc1C(=O)Nc1ccc(CCCO)cc1` [Compound 183] and `O=C(O)c1cc(F)ccc1C(=O)Nc1ccc(CCCO)cc1` [Compound 180] fall in the same range of activation at 1 µM: 30 to 50% for the first, 30 to 50% for the second.

Compared with `O=C(O)Cc1ccc(CNC(=O)c2ccccc2C(=O)O)cc1` [Compound 164], `COc1cc(CNC(=O)c2ccccc2C(=O)O)ccc1C(=O)O` [Compound 154] is lower in activation at 1 µM: over 50% for the first, 30 to 50% for the second.

Compared with `O=C(Nc1ccc(CCCO)cc1)c1cccc(Cl)c1C(=O)O` [Compound 185], `Cc1cccc(C(=O)O)c1C(=O)Nc1ccc(CCCO)cc1` [Compound 190] is higher in activation at 1 µM: 30 to 50% for the first, over 50% for the second.

`N#Cc1ccc(NC(=O)c2ccccc2-c2ccccc2C(=O)O)cc1` [Compound 61] and `N#Cc1ccc(NC(=O)c2ccccc2-c2ccc(C(=O)O)cc2)cc1` [Compound 60] cannot be ordered by activation at 1 µM: over 50% for the first, over 50% for the second.

First: N#Cc1cccc(C(=O)CC2NC(=O)c3ccccc32)c1 (stereo not shown) [Compound 39]
Second: N#Cc1ccc(C(=O)CC2NC(=O)c3ccccc32)cc1 (stereo not shown) [Compound 24]
The activation at 1 µM of the first is lower: 30 to 50% for the first, over 50% for the second.

Compared with `COc1ccccc1NC(=O)c1ccccc1C(=O)O` [Compound 68], `O=C(O)c1ccccc1C(=O)Nc1ccccc1OC(F)(F)F` [Compound 17] is lower in activation at 1 µM: over 50% for the first, 30 to 50% for the second.

First: CC(=O)c1ccc(OC(F)F)c(NC(=O)c2ccccc2C(=O)O)c1 [Compound 14]
Second: O=C(O)c1ccccc1C(=O)Nc1cccc(C(F)(F)F)c1 [Compound 18]
The activation at 1 µM of the first is lower: 30 to 50% for the first, over 50% for the second.

`COC(=O)c1ccccc1NC(=O)Nc1ccccc1` [Compound 200] and `COC(=O)c1ccccc1NC(=O)Nc1ccc(C)cc1` [Compound 198] fall in the same range of activation at 1 µM: 30 to 50% for the first, 30 to 50% for the second.

`O=C(CC1NC(=O)c2ccccc21)c1ccc(C(F)(F)F)cc1` (stereo not shown) [Compound 42] and `O=C(O)c1ccccc1C(=O)Nc1cc(Cl)cc(C(F)(F)F)c1` [Compound 12] fall in the same range of activation at 1 µM: 30 to 50% for the first, 30 to 50% for the second.

`CC(C)(CO)c1ccc(NC(=O)c2ccccc2C(=O)O)cc1` [Compound 32] and `Cc1ccccc1NC(=O)Nc1ccccc1C(=O)O` [Compound 199] fall in the same range of activation at 1 µM: 30 to 50% for the first, 30 to 50% for the second.

For `COc1ccc(C(=O)NCc2ccc(C(=O)O)cc2)c(C(=O)O)c1` [Compound 106], the activation at 1 µM was 30 to 50%.

tested on: not listed separately; experiment: Quantitation of compounds in rat knee joint extract after intra-articular injection (LC-MS/MS); type: in vivo; conditions: knee joint extract (whole joint, acetonitrile extract), other: intra-articular injection, 30 μL of 100 μM solution, T = 0 h, 30 μL of 100 μM intra-articular, read-out: Concentration observed in extract
Protocol: LC-MS/MS analysis for Chondrogenesis compounds were performed using an API 3000 equipped with an Agilent 1100 HPLC and a Leap Technologies autosampler. A HPLC Phenomenex 5 micron, 100 A Luna C18 (2) analytical column with dimensions of 2.0×50 mm (Part No. 00B-4252-B0) at a temperature of 30 C, flow rate of 0.6 mL/min, injection volume of 10 uL, and a 6.0 min run time was used. Mobile phase A1 was 0.1% formic acid in water and Mobile phase B1 was 0.1% formic acid in acetonitrile. The gradient was 90% A1/10% B1 at time 0; 90% A1/10% B1 at time 1.0 min; 10% A1/90% B1 at time 2.0 min; 10% A1/90% B1 at time 4.0 min; 90% A1/10% B1 at time 4.10 min; 90% A1/10% B1 at time 6.0 min. Analytes and internal standard quantitation were performed using Multiple Reaction Monitoring (MRM) quantitation method. Listed below are specific methods used to dose and measure exposure in plasma and the observed concentration in joint extract.
Calibration standard curve was prepared by serial dilution of a concentrated, spike solution of the compound in internal standard diluents. Internal standard diluent was prepared by dissolving the internal standard compound at a certain concentration in acetonitrile. Rat knee joint samples for each time points were individually crushed and transferred into each centrifuge tube and added 1.0-mL of internal standard diluent. Each centrifuge tube was vortexed and centrifuged for 30 minutes. From each tube, supernatant was removed and injected onto the column for analysis. In addition, plasma samples were obtained by retro-orbital bleeds into heparin coated tubes and stored at −80 C and later processed by analogy to the protocol described above for rat plasma samples.
30 μL of 100 μM compound solution (PBS with 0.1% DMSO) was injected into the intra-articular space of the right hinder knee of each animal. The animals were euthanized at indicated time points (0 hr, 0.5 hr, 1 hr, 2 hr, 4 hr and 6 hr). Four animals were used for each timepoint. The injected knee joints were harvested, flash freeze in liquid nitrogen. The whole joints were grounded into powder while frozen, mixed with 1 mL internal standard-containing acetonitrile, incubated at 4° C. overnight, vortexed and centrifuged for 30 min. The supernatant from each sample was analyzed using LC-MS/MS. Data shown in Table 2 indicates the observed concentration in knee extract. ND=Not determined.

Point of comparison: `COCCc1ccc(NC(=O)c2ccccc2C(=O)O)cc1` [Compound 21], concentration at 0 h 434 ng/mL. Against it:
- CC1COCCN1S(=O)(=O)c1ccccc1NC(=O)c1ccc(F)cc1 (stereo not shown) [Compound 128] — 17-fold higher, 7280 ng/mL
- N#Cc1ccc(C(=O)Nc2ccccc2S(=O)(=O)N2CCOCC2)cc1 [Compound 62] — within 1.5-fold, 411 ng/mL

same assay, conditions: knee joint extract (whole joint, acetonitrile extract), other: intra-articular injection, 30 μL of 100 μM solution, T = 0.5 h, 30 μL of 100 μM intra-articular, read-out: Concentration observed in extract

Point of comparison: `CC1COCCN1S(=O)(=O)c1ccccc1NC(=O)c1ccc(F)cc1` (stereo not shown) [Compound 128], concentration at 0.5 h 2940 ng/mL. Against it:
- COCCc1ccc(NC(=O)c2ccccc2C(=O)O)cc1 [Compound 21] — 320-fold lower, 9.1 ng/mL
- N#Cc1ccc(C(=O)Nc2ccccc2S(=O)(=O)N2CCOCC2)cc1 [Compound 62] — 27-fold lower, 109 ng/mL

same assay, conditions: knee joint extract (whole joint, acetonitrile extract), other: intra-articular injection, 30 μL of 100 μM solution, T = 1 h, 30 μL of 100 μM intra-articular, read-out: Concentration observed in extract

Point of comparison: `CC1COCCN1S(=O)(=O)c1ccccc1NC(=O)c1ccc(F)cc1` (stereo not shown) [Compound 128], concentration at 1 h 1360 ng/mL. Against it:
- COCCc1ccc(NC(=O)c2ccccc2C(=O)O)cc1 [Compound 21] — 280-fold lower, 4.9 ng/mL
- N#Cc1ccc(C(=O)Nc2ccccc2S(=O)(=O)N2CCOCC2)cc1 [Compound 62] — 26-fold lower, 52.6 ng/mL

same assay, conditions: knee joint extract (whole joint, acetonitrile extract), other: intra-articular injection, 30 μL of 100 μM solution, T = 2 h, 30 μL of 100 μM intra-articular, read-out: Concentration observed in extract

Point of comparison: `N#Cc1ccc(C(=O)Nc2ccccc2S(=O)(=O)N2CCOCC2)cc1` [Compound 62], concentration at 2 h 15.7 ng/mL. Against it:
- COCCc1ccc(NC(=O)c2ccccc2C(=O)O)cc1 [Compound 21] — lower, 0 ng/mL
- CC1COCCN1S(=O)(=O)c1ccccc1NC(=O)c1ccc(F)cc1 (stereo not shown) [Compound 128] — 35-fold higher, 546 ng/mL

Reference: patent US9452170B2, “Compounds and methods for inducing chondrogenesis” (The California Institute for Biomedical Research, priority 2013, dated 2016)
